Data on 15 molecules can be found in patent US12344587B2, “Synthetic retinoids for use in RAR activation” (UNIVERSITY OF DURHAM, priority 2019, dated 2025).

Assay type in all cases: cell-based
For assay [1], the system named is SH-SY5Y cells. Nature of the assay: Induction of neurite outgrowth. The conditions noted are these: 10 nM, 5 days; for fold induction at 0.01 µM: Homo sapiens, 120 h, read-out: Neurite Outgrowth Fold increase. As for the experimental part:
SY—SY5Y cells were plated at 10,000 cells/well in 12-well plates containing acid-treated/poly-L-lysine-coated coverslips. After 24 hours, each retinoid was added to the medium at a concentration of 10 nM and the plates were incubated for 5 days. After retinoid treatment, SH-SY5Y cells on coverslips were washed twice in PBS, fixed in 4% paraformaldehyde (PFA) for 20 minutes at room temperature, and washed twice with PBS.
For immunocytochemical staining of neurites, cells on coverslips were washed three times in PBS, and incubated in blocking solution (10% donkey serum and 0.1% triton X-100 in PBS) for 1 hour at room temperature. Cells were then labelled by incubation overnight at 4° C. with β-III tubulin primary antibody (Sigma-Aldrich) diluted 1:1000 in blocking buffer. Following incubation overnight, cells were washed three times with PBS containing 0.1% Triton X-100 solution (PBST) before incubation with anti-mouse monoclonal secondary antibody (1:300 in PBST; Jackson Immunoresearch) for 2 hours at room temperature. Finally, after three washes in PBST and a final wash in PBS, the coverslips were mounted on slides and stored at 4° C.
ImageJ software with the NeuronJ plugin was used to quantify neurite outgrowth on stained cells. For each experiment, 10 different randomly selected images were taken from each cover slip using a Nikon Eclipse E400 fluorescence microscope. Each image was converted into an 8-bit image (necessary for the NeuronJ plugin) and optimised with the brightness and contrast tool in GIMP (GNU Image Manipulation Program). For each image, individual traces were drawn for each clearly-identifiable neurite using the tracing tool in the NeuronJ plugin. Neurite length was measured in pixels and transformed into the corresponding length in μm depending on the magnification used. The average neurite length for each image was calculated by dividing total neurite length by the total number of neurites per image. Ten images per cover slip were measured and the mean calculated for the coverslip overall. Coverslips were in triplicate for each retinoid and concentration.

Assay [2] relates to ERK1/2. Nature of the assay: ERK1/2 phosphorylation assay, AlphaLISA SureFire Ultra (non-genomic activity). On the set-up: Non-genomic activity (ERK½ Phosphorylation Assay) Efficacy (Emax): unit not given here. Particulars: SH-SY5Y cells; for EC50: Homo sapiens, 0.5 h, read-out: Non-genomic activity (ERK½ Phosphorylation Assay) Potency (EC50); for EC50 / Non-genomic activity (ERK½ Phosphorylation Assay) Efficacy (Emax): serum-free, 30 minutes stimulation; for Erk 1/2 phosphorylation potency/efficacy compared to retinoic acid: versus retinoic acid. As for the experimental part: The non-genomic activity of synthetic retinoids was evaluated by measuring their ability to induce phosphorylation of ERK1/2 using the AlphaLISA® SureFire® Ultra ERK1/2 kit.
In this assay, SH-SY5Y cells (100,000 cells/well) were plated in 96-well plates and serum-starved in DMEM for 24 hours. Retinoids were tested at concentrations from 10−5 M to 10−11 M and at a final concentration of 0.1% DMSO in the medium. The assay was carried out on the SH-SY5Y cells in serum-free DMEM, cells were stimulated by retinoid for 30 minutes at 37° C.
At the end of the assay, the medium was removed, and cells were lysed in 50 μl of freshly prepared 1× lysis buffer (supplied in the kit). The 96-well plate was agitated on an orbital shaker (SO1, Stuart Scientific) at approximately 350 rpm for 10 minutes at room temperature.
In the meantime, the activation buffer was diluted 25-fold in the reaction buffers. Under green light in a dark room, the acceptor beads were diluted 50-fold in the freshly prepared reaction mix while the donor beads were diluted 50-fold in dilution buffer to obtain two final reaction mixtures.
10 μl of cell lysate was then transferred per well into 384-well white Proxiplates plates (PerkinElmer) and 5 μl of each prepared acceptor and donor reaction mixture was added under green light in a dark room. Plates were wrapped with aluminium foil and incubated at room temperature for at least 3 hours. Readings were taken using an Envision system (PerkinElmer Life Sciences) using the AlphaScreen® settings.

Assay [3] deals with retinoic acid response element (RARE). Briefly: X-Gal RA based reporter assay (genomic activity). The conditions noted are these: for Genomic Activity (X-Gal RA Based Reporter Assay) Efficacy (Emax) / EC50: Sil-15 reporter cells, overnight incubation; for EC50: read-out: Genomic Activity (X-Gal RA Based Reporter Assay) Potency (EC50); for Genomic activity and potency compared to retinoic acid (ATRA): X-Gal assay, versus ATRA. As for the experimental part: The genomic activity of synthetic retinoids was evaluated by determining their efficiency of inducing transcription using the X-Gal Assay. The X-Gal Assay utilizes Sil-15 reporter cells in which the transcription of the LacZ gene is under control of a promoter linked to a retinoic acid response element (RARE). After treatment of the reporter cells with retinoids, the ability of the compounds to induce transcription can be attained by monitoring and quantifying the activity of β-galactosidase produced by the reporter cells.
Sil-15 cells were plated at 100,000 cells per well in 96-well plates coated in 0.1% gelatin. The following day, serial dilutions of retinoid ligands, prepared in Dulbecco's Modified Eagle's Medium (DMEM) containing 10% foetal calf serum (FCS) were added at concentrations from 10^−6 M to 10^−14 M and the plates were incubated overnight. All concentrations for the ATRA standard curve and the other retinoid ligands were tested in triplicate.
The next day, the assay plates were washed twice with phosphate buffered saline (PBS), fixed with 100 μl per well of 1% glutaraldehyde and 1 mM MgCl2 in PBS for 15 minutes and washed twice with PBS. β-galactosidase activity was detected by the addition of 100 μl of freshly-prepared 0.2% X-Gal in 1 mM MgCl2, 3.3 mM potassium ferricyanide and 3.3 mM potassium ferrocyanide in PBS per well. Plates were incubated for 6 hours at 37° C. in 5% CO2 and colour change was detected by reading the plates at 650 nm on an Emax Precision Microplate Reader (Molecular Devices).

As for `CC1(C)CCC(C)(C)c2cc(C#Cc3ccc(C(=O)O)cn3)ccc21` [DC527], in assay [1], the “Average neurite length compared to cells treated with ATRA” value is reported as “significantly larger average neurite length” and the fold induction at 0.01 µM was determined as 1.9. In addition, in assay [2], the EC50 came out at 30.6 nM; the “Non-genomic activity (ERK½ Phosphorylation Assay) Efficacy (Emax)” value (from here on “Non-genomic activity”) came out at 92.51; the “Erk 1/2 phosphorylation potency/efficacy compared to retinoic acid” value was “higher potency and efficacy”. For the same molecule, in assay [3], the “Genomic Activity (X-Gal RA Based Reporter Assay) Efficacy (Emax)” value came to 209.8; the half-maximal effective concentration (EC50) worked out at 0.00347 nM; the “Genomic activity and potency compared to retinoic acid (ATRA)” value was “increased genomic activity and potency”.
`COc1cc2c(cc1C#Cc1ccc(C(=O)O)cc1F)C(C)(C)CCC2(C)C` [DC564]: the fold induction at 0.01 µM in assay [1] is 1.3. For the same molecule, in assay [2], the EC50 amounted to 18.1 nM and the “Non-genomic activity” value is reported as 44.46. In addition, in assay [3], the “Genomic Activity (X-Gal RA Based Reporter Assay) Efficacy (Emax)” value was 177.1 and the EC50 worked out at 5.31 nM.
For the molecule `Cc1cc2c(cc1C#Cc1ccc(C(=O)O)c(F)c1)C(C)(C)CCC2(C)C` [DC667], the fold induction at 0.01 µM in assay [1] came out at 1.4. For the same molecule, in assay [2], the EC50 was determined as 4.85 nM and the “Non-genomic activity” value is 44.3. Also, in assay [3], the “Genomic Activity (X-Gal RA Based Reporter Assay) Efficacy (Emax)” value is 169.8 and the EC50 turned out to be 0.134 nM.
With `Cc1cc2c(cc1C#Cc1ccc(C(=O)O)cc1F)C(C)(C)CCC2(C)C` [DC559], the fold induction at 0.01 µM in assay [1] is 1.4. For the same molecule, in assay [2], the EC50 turned out to be 15.7 nM and the “Non-genomic activity” value came to 40.68. Moreover, in assay [3], the “Genomic Activity (X-Gal RA Based Reporter Assay) Efficacy (Emax)” value amounted to 139.8 and the EC50 amounted to 1.38 nM.
On the same counts, the results for `COc1cc2c(cc1C#Cc1ncc(C(=O)O)cn1)C(C)(C)CCC2(C)C` [DC706] are 1.3, 90.8 nM, 36.87, 265.9 and 603 nM.
In the case of `Cc1cc2c(cc1C#Cc1ncc(C(=O)O)cn1)C(C)(C)CCC2(C)C` [DC707], the fold induction at 0.01 µM in assay [1] is 1.2. Moreover, in assay [2], the EC50 is 4.32 nM and the “Non-genomic activity” value is given as 44.87. In addition, in assay [3], the “Genomic Activity (X-Gal RA Based Reporter Assay) Efficacy (Emax)” value stood at 192.2 and the EC50 was 0.826 nM.
For the molecule `Cc1cc2c(cc1C#Cc1ccc(C(=O)O)cn1)C(C)(C)CCC2(C)C` [DC656], in assay [1], the fold induction at 0.01 µM is 1.6. In assay [2], the EC50 was 502 nM and the “Non-genomic activity” value is 56.77. In assay [3], the “Genomic Activity (X-Gal RA Based Reporter Assay) Efficacy (Emax)” value came to 177.2 and the EC50 amounted to 0.427 nM.
Regarding `CC1=C(/C=C/C(C)=C/C=C/C(C)=C/C(=O)O)C(C)(C)CCC1` [ATRA, All-trans-retinoic acid, reference compound], the fold induction at 0.01 µM in assay [1] worked out at 1.4. In assay [2], the EC50 is 33.1 nM and the “Non-genomic activity” value was 48.55. For the same molecule, in assay [3], the “Genomic Activity (X-Gal RA Based Reporter Assay) Efficacy (Emax)” value stood at 170.1 and the EC50 stood at 1.04 nM.
The matching figures for `CC1(C)CCC(C)(C)c2nc(C#Cc3ccc(C(=O)O)cc3F)cnc21` [DC712]: 1.2, 6.35 nM, 94, 179.7 and 0.382 nM.
Regarding `CC1(C)CCC(C)(C)c2cc(C#Cc3cc(F)c(C(=O)O)c(F)c3)ccc21` [DC540], the fold induction at 0.01 µM in assay [1] was 1.7. In addition, in assay [2], the concentration giving a half-maximal response (EC50) came to 159 nM; the “Non-genomic activity” value is recorded as 79.73; the “Erk 1/2 phosphorylation potency/efficacy compared to retinoic acid” value was “higher potency and efficacy”. Moreover, in assay [3], the “Genomic Activity (X-Gal RA Based Reporter Assay) Efficacy (Emax)” value is 185.3; the EC50 is 0.015 nM; the “Genomic activity and potency compared to retinoic acid (ATRA)” value was “increased genomic activity and potency”.
On to `COc1cc2c(cc1C#Cc1cc(F)c(C(=O)O)c(F)c1)C(C)(C)CCC2(C)C` [DC657], for which, in assay [1], the fold induction at 0.01 µM was found to be 1.4. Besides, in assay [2], the EC50 turned out to be 3.5 nM and the “Non-genomic activity” value is on record as 72.45. In assay [3], the “Genomic Activity (X-Gal RA Based Reporter Assay) Efficacy (Emax)” value is 154.9 and the EC50 is 0.146 nM.
For `COc1cc2c(cc1C#Cc1ccc(C(=O)O)cn1)C(C)(C)CCC2(C)C` [DC646], the fold induction at 0.01 µM in assay [1] was determined as 1.7. Besides, in assay [2], the EC50 worked out at 144 nM and the “Non-genomic activity” value worked out at 77.63. For the same molecule, in assay [3], the “Genomic Activity (X-Gal RA Based Reporter Assay) Efficacy (Emax)” value is 176.3 and the EC50 came to 3.16 nM.
As for `CC1(C)CCC(C)(C)c2cc(C#Cc3ccc(C(=O)O)c(F)c3)ccc21` [DC525], in assay [1], the “Average neurite length compared to cells treated with ATRA” value is reported as “significantly larger average neurite length” and the fold induction at 0.01 µM amounted to 1.9. For the same molecule, in assay [2], the half-maximal effective concentration (EC50) worked out at 2.49 nM, the “Non-genomic activity” value worked out at 42.44 and the “Erk 1/2 phosphorylation potency/efficacy compared to retinoic acid” value was “higher potency”. Also, in assay [3], the “Genomic Activity (X-Gal RA Based Reporter Assay) Efficacy (Emax)” value came out at 190; the concentration for a half-maximal effect (EC50) came to 0.21 nM; the “Genomic activity and potency compared to retinoic acid (ATRA)” value was “increased genomic activity and potency”.
On to `CC1(C)CCC(C)(C)c2cc(C#Cc3ccc(C(=O)O)cc3Cl)ccc21` [DC567], for which, in assay [1], the fold induction at 0.01 µM worked out at 1.6. Besides, in assay [2], the half-maximal effective concentration (EC50) is 18.1 nM and the “Non-genomic activity” value was determined as 44.46. Also, in assay [3], the “Genomic Activity (X-Gal RA Based Reporter Assay) Efficacy (Emax)” value is reported as 97.21 and the EC50 turned out to be 13.6 nM.
The matching figures for `CC1(C)CCC(C)(C)c2cc(C#Cc3cnc(C(=O)O)cn3)ccc21` [DC529]: 1.3, 30.4 nM, 28.85, 174 and 3.89 nM.
